SMILES strings stand for the structures.

Data set [1] relates to zebrafish embryos/larvae. How it is done: First, zebrafish embryos were divided into 7 groups at an average of 65 embryos per group. […] Briefly, live human lung cancer cells (A549) were labeled with CM-DiI (red) and only live cells were transplanted via injection into the perivitelline space of 30 zebrafish embryos 24 hours post fertilization (hpf) (Sittaramane et al., 2015; Veinotte et al., 2014; Xie et al., 2015). Tumor inoculated zebrafish embryos were allowed to grow for one day till 48 hpf. This allows for establishment of the cancer cells in the host zebrafish embryos.
The embryonic development of zebrafish embryos was monitored at 48 hpf and 72 hpf to record the number of dead embryos.

The test system of data set [2] is thioredoxin reductase (TrxR) in A549 cells. The experiment in a line: Lipoate reduction assay of thioredoxin reductase activity in live cells. Format: cell-based, human. The procedure:
To assess whether any or all of the present gold complexes could serve as TrxR inhibitors, standard tests involving the reduction of the oxidized form of the cell-permeable cofactor lipoate to its corresponding reduced form, dihydrolipoate, were carried out. […] [Cl] and 5 (cocktail), auranofin, and doxorubicin for 6 h. Post treatment, the live cells were monitored colorimetrically over 180 min for their ability to reduce lipoate (FIG. 5A).
Cells were harvested and seeded at a density of 10,000 cells/well A549 in 96-well culture plates. They were then incubated overnight at 37° C. and 5% CO2. The next day, appropriate serial dilutions of drug stock in culture media were performed, and 100 μL of the appropriate solution were added to each well. Cells were returned to the incubator for 6 h. Afterwards, the liquid was then removed from each well by vacuum aspiration and replaced by 100 μL of 5 mM lipoate (Tokyo Chemical Industry Co., Ltd. L0207) and 1 mM DTNB (Acros Organics 117540050) in HBSS (Life tech 14025-092). The absorbance of each well at […] was recorded immediately and once every 20 min for three h on a microplate reader (Molecular Devices, Sunnyvale, Calif.). Plates were covered with aluminum foil between readings.

`Cc1cc(C)c(-n2c3c([n+](-c4c(C)cc(C)cc4C)[c]2[Au-][c]2n(-c4c(C)cc(C)cc4C)c4c([n+]2-c2c(C)cc(C)cc2C)C(=O)c2ccccc2C4=O)C(=O)c2ccccc2C3=O)c(C)c1.[Cl][Ag-][Cl]` [Compound 1, [Bis(1,3-dimesityl-4,5-naphthoquino-imidazol-2-ylidene)-gold(I)] [Silver(I)dichloride]]: the “toxic effect relative to vehicle” value in data set [1] (0.5 μM) was “no observable toxic effect”. The compound also yielded a lethality in data set [1] (concentrations above 1 μM) of 100%. Moreover, in data set [1] (zebrafish embryos/larvae), the LD50 turned out to be 0.75 µM. Moreover, the “TrxR activity by lipoate reduction, time and dose dependence” value in data set [2] (A549, in words) was “time (FIG. 12A) and dose (FIG. 12B) dependent inhibition of enzyme activity”. Moreover, the “inhibition of TrxR (lipoate reduction)” value in data set [2] (A549, low concentrations (0.1-0.6 μM), 6 h) was “inhibition of TrxR was apparent”.

Values taken from patent US11332483B2, “Naphthoquinone containing gold carbene complexes and methods of uses thereof” (BOARD OF REGENTS, THE UNIVERSITY OF TEXAS SYSTEM, priority 2017, dated 2022).
